From paper PMC6934184, “Selective DNA-PKcs inhibition extends the therapeutic index of localized radiotherapy and chemotherapy” (The Journal of Clinical Investigation, 2019)

Molecular target: T1, KIT A829P (Homo sapiens, UniProt P10721, A829P)
T1 construct: purchased Thermo Fisher Scientific (Life Technologies) SelectScreen
Test: SelectScreen LanthaScreen
Type: binding
Conditions: read-out: % displacement
Procedure, shortened: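 NU5455 was profiled across the SelectScreen Broad panel of kinase activity and binding assays. Z'LYTE reactions such as CSF1R ran at apparent Km ATP, while the Adapta CAMK1 assay used ATP listed as 10. Values are given as percent.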

T1 sequence (P10721 26-976 A829P): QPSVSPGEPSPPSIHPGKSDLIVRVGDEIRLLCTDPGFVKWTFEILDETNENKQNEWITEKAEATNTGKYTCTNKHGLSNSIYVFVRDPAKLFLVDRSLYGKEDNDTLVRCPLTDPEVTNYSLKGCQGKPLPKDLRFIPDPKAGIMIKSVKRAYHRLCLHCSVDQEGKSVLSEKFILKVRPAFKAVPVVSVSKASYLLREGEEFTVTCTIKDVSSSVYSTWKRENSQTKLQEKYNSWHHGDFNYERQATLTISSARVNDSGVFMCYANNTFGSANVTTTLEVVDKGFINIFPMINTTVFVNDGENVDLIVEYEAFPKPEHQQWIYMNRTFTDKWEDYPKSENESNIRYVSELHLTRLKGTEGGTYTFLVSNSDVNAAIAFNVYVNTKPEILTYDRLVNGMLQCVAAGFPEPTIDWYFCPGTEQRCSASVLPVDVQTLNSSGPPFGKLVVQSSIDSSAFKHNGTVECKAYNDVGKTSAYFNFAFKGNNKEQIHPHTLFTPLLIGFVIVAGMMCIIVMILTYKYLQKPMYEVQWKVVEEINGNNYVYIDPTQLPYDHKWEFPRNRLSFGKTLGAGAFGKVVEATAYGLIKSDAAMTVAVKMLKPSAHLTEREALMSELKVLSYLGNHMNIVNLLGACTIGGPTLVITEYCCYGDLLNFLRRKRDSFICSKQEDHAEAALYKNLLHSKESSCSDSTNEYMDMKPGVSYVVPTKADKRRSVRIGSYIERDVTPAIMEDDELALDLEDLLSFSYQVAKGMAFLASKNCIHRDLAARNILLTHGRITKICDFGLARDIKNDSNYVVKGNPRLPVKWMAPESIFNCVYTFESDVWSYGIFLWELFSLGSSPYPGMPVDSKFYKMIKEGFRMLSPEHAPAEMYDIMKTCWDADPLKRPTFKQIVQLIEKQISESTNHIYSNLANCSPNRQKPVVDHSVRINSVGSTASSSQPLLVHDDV

For `CN(C(=O)CN1CCOCC1)c1ccc2sc3c(-c4cccc5c(=O)cc(N6CC7CCC(C6)O7)oc45)cccc3c2c1` [NU5455], the inhibition at 1 µM was 0.7%.
